US6355472B2, “Method for producing nucleoside-5′-phosphate ester” (Ajinomoto Co., Inc., priority 1996, dated 2002)

What was measured:
[1] = biological target: T1, acid phosphatase derived from Morganella morganii (Morganella morganii, UniProt P28581); format: biochemical, Morganella morganii NCIMB 10466
T1 construct: made in house; host or cells: Morganella morganii NCIMB 10466 (native strain, not recombinant; purified from cell-free extract)

[2] = tested on: acid phosphatase derived from Escherichia blattae; format: biochemical, Escherichia blattae JCM 1650
[3] = biological target: T2, acid phosphatase sample derived from Morganella morganii (Morganella morganii, UniProt P28581); test: Production of 5′-inosinic acid from various phosphate group donors by acid phosphatase sample; format: biochemical; settings: inosine 2 g/dl, phosphate group donor 10 g/dl, enzyme 50 units/dl, pH 4.0, 30° C., 3 hours
T2 construct: made in house; host or cells: Morganella morganii NCIMB 10466 (native strain, not recombinant; purified from cell-free extract)
Description: (§1) Inosine (2 g/dl) and sodium tripolyphosphate, sodium polyphosphate (trade name: Polygon P, produced by Chiyoda Chemical), disodium phenylphosphate, or disodium carbamyl phosphate (10 g/dl) as a phosphate group donor were dissolved in sodium acetate buffer (pH 4.0), to which the enzyme sample prepared in Example 1 was added so that its concentration was 50 units/dl. The reaction mixture was incubated at 30° C. for 3 hours while maintaining pH at 4.0.

[4] = tested on: E. coli JM109/pEPI380; test: Production of 5′-inosinic acid from various phosphate donors using new mutant acid phosphatase gene-containing strain; format: cell-based; settings: inosine 6 g/dl, phosphate donor 15 g/dl, cells 100 mg/dl dry weight, pH 4.0, 35° C., 12 hours
Description: E. coli JM109/pEPI380 having introduced therein the plasmid containing the new mutant acid phosphatase gene was inoculated into 50 ml of an L medium containing 100 μg/ml of ampicillin and 1 mM of IPTG, and incubated at 37 C. for 16 hours.
Inosine (6 g/dl) and 15 g/dl of a tripolyphosphate, a polyphosphate (“Polygon P”, a trade name for a product of Chiyoda Kagaku K.K.), […] or disodium carbamylphosphate were dissolved in a 100-mM acetate buffer (pH 4.0). To this was added the above-mentioned strain such that the concentration reached 100 mg/dl in terms of the dry cell weight. The reaction was conducted at 35° C. for 12 hours while maintaining the pH at 4.0. 5′-Inosinic acid was formed and accumulated at good efficiency with any of the phosphate donors. Especially when a polyphosphate was used as a phosphate donor, 5′-inosinic acid was accumulated in the largest amount.

[5] = tested on: Escherichia coli JM109/pEPI330; test: Production of 5′-inosinic acid from various phosphate group donors using microbial cells of the mutant strain; format: cell-based; settings: inosine 6 g/dl, phosphate group donor 12 g/dl, cells 200 mg/dl dry weight, pH 4.0, 35° C., 32 hours
Description: (§2) Escherichia coli JM109/pEPI330 into which the plasmid containing the mutant acid phosphatase gene had been introduced was inoculated to an L medium (50 ml) containing 100 μg/ml of ampicillin and 1 mM of IPTG, and it was cultivated at 37° C. for 16 hours.
Inosine (6 g/dl) and sodium tripolyphosphate, sodium polyphosphate (trade name: Polygon P, produced by Chiyoda Chemical), disodium phenylphosphate, or disodium carbamyl phosphate (12 g/dl) as a phosphate group donor were dissolved in 100 mM sodium acetate buffer (pH 4.0), to which the microbial cells described above were added to give a cell concentration of 200 mg/dl as converted into a dry weight of the cells. The reaction mixture was incubated at 35° C. for 32 hours while maintaining pH at 4.0. 5′-Inosinic acid was efficiently produced and accumulated by using any of the phosphate group donors. However, the accumulated amount of 5′-inosinic acid was the highest when polyphosphoric acid was used as the phosphate group donor.

[6] = tested on: acid phosphatase sample derived from Escherichia blattae; test: Production of 5′-inosinic acid from various phosphate group donors by acid phosphatase sample; format: biochemical; settings: inosine 2 g/dl, phosphate group donor 10 g/dl, enzyme 50 units/dl, pH 4.0, 35° C., 3 hours
Description: as §1, with “Example 4” for “Example 1”, “at 35°” for “at 30°”

[7] = tested on: Escherichia coli JM109/pEPI330; test: Production of various nucleoside-5′-phosphate esters using microbial cells of the mutant strain; format: cell-based; settings: sodium pyrophosphate 12 g/dl, nucleoside 6 g/dl, cells 200 mg/dl dry weight, pH 4.0, 35° C., 32 hours
Description: as §2, with “gene encoding the” for “mutant”, “with lowered phosphomonoesterase activity” for “gene”
Sodium pyrophosphate (12 g/dl), and inosine, guanosine, uridine, or cytidine (6 g/dl) as a phosphate group acceptor were dissolved in 100 mM sodium acetate buffer (pH 4.0), to which the microbial cells described above were added to give a cell concentration of 200 mg/dl as converted into a dry weight of the cells. The reaction mixture was incubated at 35° C. for 32 hours while maintaining pH at 4.0. Produced nucleotide contained only nucleoside-5′-phosphate ester. By-production of nucleoside-2′-phosphate ester and nucleoside-3′-phosphate ester was not observed at all.

[8] = tested on: acid phosphatase sample derived from Escherichia blattae; test: Phosphorylation reaction of various nucleosides by acid phosphatase sample; format: biochemical; settings: sodium pyrophosphate 15 g/dl, nucleoside 3 g/dl, enzyme 50 units/dl, pH 4.0, 35° C., 3 hours
Description: Sodium pyrophosphate (15 g/dl) and inosine, guanosine, uridine, or cytidine (3 g/dl) were dissolved in sodium acetate buffer (pH 4.0), to which the enzyme sample prepared in Example 4 was added so that its concentration was 50 units/dl. The reaction mixture was incubated at 35° C. for 3 hours while maintaining pH at 4.0.

[9] = tested on: E. coli JM109/pEPI380; test: Production of various nucleoside-5′-phosphate esters using new mutant acid phosphatase gene-containing strain; format: cell-based; settings: pyrophosphoric acid 15 g/dl, nucleoside 8 g/dl, cells 100 mg/dl dry weight, pH 4.0, 35° C., 12 hours
Description: E. coli JM109/pEPI380 having introduced therein the plasmid containing the new mutant acid phosphatase gene was inoculated into 50 ml of an L medium containing 100 μg/ml of ampicillin and 1 mM of IPTG, and incubated at 37° C. for 16 hours.
Pyrophosphoric acid (15 g/dl) and 8 g/dl of inosine, […], uridine or cytidine as a phosphate acceptor were dissolved in a 100 mM acetate buffer ([…]). To this was added the above-mentioned strain such that the concentration reached 100 mg/dl in terms of the dry cell weight. The reaction was conducted at 35° C. for 12 hours while maintaining the pH at 4.0. The phosphorylation proceeded well with any of the nucleosides to form and accumulate the corresponding nucleoside-5′-phosphate esters. The nucleotide formed was only the nucleoside-5′-phosphate ester, and the formation of a nucleoside-2′-phosphate ester and a nucleoside-3′-phosphate ester as by-products was not observed at all.

[10] = biological target: T2, acid phosphatase sample derived from Morganella morganii; test: Phosphorylation reaction of various nucleosides by acid phosphatase sample; format: biochemical; settings: sodium pyrophosphate 10 g/dl, nucleoside 2 g/dl, enzyme 50 units/dl, pH 4.0, 30° C., 3 hours
Description: Sodium pyrophosphate (10 g/dl) and inosine, guanosine, uridine, or cytidine (2 g/dl) as a phosphate group acceptor were dissolved in sodium acetate buffer (pH 4.0), to which the enzyme sample prepared in Example 1 was added so that its concentration was 50 units/dl. The reaction mixture was incubated at 30° C. for 3 hours while maintaining pH at 4.0.

T2 sequence (P28581 21-249): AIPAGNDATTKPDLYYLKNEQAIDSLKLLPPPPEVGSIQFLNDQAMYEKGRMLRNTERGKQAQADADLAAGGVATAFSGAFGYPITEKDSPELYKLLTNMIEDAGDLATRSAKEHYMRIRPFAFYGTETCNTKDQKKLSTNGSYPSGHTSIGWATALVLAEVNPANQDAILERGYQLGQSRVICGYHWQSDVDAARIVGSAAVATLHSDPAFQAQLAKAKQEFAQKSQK
T1 sequence (P28581 21-249): as above

[Cu+2] [Cu^2+]
Effect of the addition of metal ion and inhibitor on activity [1]: inhibited | Effect of the addition of metal ion and inhibitor on activity [2]: inhibited

NC(=O)OP(=O)([O-])[O-].[Na+].[Na+] [Disodium carbamyl phosphate, disodium carbamyl phosphate]
Produced 5′-inosinic acid [3]: 2.54 g/dL | Amount of 5′-inosinic acid formed [4]: 12.42 g/dL | Produced 5′-inosinic acid [5]: 7.73 g/dL | Produced 5′-inosinic acid [6]: 1.53 g/dL

sodium polyphosphate
Produced 5′-inosinic acid [3]: 2.72 g/dL | Amount of 5′-inosinic acid formed [4]: 13.35 g/dL | Produced 5′-inosinic acid [5]: 8.84 g/dL | Produced 5′-inosinic acid [6]: 1.79 g/dL

Nc1nc2c(ncn2[C@@H]2O[C@H](CO)[C@@H](O)[C@H]2O)c(=O)[nH]1 [Guanosine, guanosine]
Amount Produced (nucleoside-5′-phosphate ester) [7]: 4.77 g/dL | Amount Produced (nucleoside-5′-ester) [8]: 1.05 g/dL | Amount of the Product (nucleoside-5′-phosphate ester) [9]: 5.78 g/dL | Amount Produced (nucleoside-5′-ester) [10]: 1.90 g/dL

[Ag+2] [Ag^2+]
Effect of the addition of metal ion and inhibitor on activity [1]: inhibited | Effect of the addition of metal ion and inhibitor on activity [2]: inhibited

[Pb+2] [Pb^2+]
Effect of the addition of metal ion and inhibitor on activity [1]: inhibited | Effect of the addition of metal ion and inhibitor on activity [2]: inhibited

O=c1ccn([C@@H]2O[C@H](CO)[C@@H](O)[C@H]2O)c(=O)[nH]1 [Uridine, uridine]
Amount Produced (nucleoside-5′-phosphate ester) [7]: 8.93 g/dL | Amount Produced (nucleoside-5′-ester) [8]: 1.87 g/dL | Amount of the Product (nucleoside-5′-phosphate ester) [9]: 13.28 g/dL | Amount Produced (nucleoside-5′-ester) [10]: 1.30 g/dL

OC[C@H]1O[C@@H](n2cnc3c(O)ncnc32)[C@H](O)[C@@H]1O [Inosine, inosine]
Amount Produced (nucleoside-5′-phosphate ester) [7]: 7.45 g/dL | Amount Produced (nucleoside-5′-ester) [8]: 1.56 g/dL | Amount of the Product (nucleoside-5′-phosphate ester) [9]: 12.05 g/dL | Amount Produced (nucleoside-5′-ester) [10]: 2.60 g/dL

O=P([O-])([O-])Oc1ccccc1.[Na+].[Na+] [Disodium phenylphosphate, disodium phenylphosphate]
Produced 5′-inosinic acid [3]: 2.33 g/dL | Amount of 5′-inosinic acid formed [4]: 12.84 g/dL | Produced 5′-inosinic acid [5]: 7.60 g/dL | Produced 5′-inosinic acid [6]: 1.50 g/dL

Nc1ccn([C@@H]2O[C@H](CO)[C@@H](O)[C@H]2O)c(=O)n1 [Cytidine, cytidine]
Amount Produced (nucleoside-5′-phosphate ester) [7]: 6.60 g/dL | Amount Produced (nucleoside-5′-ester) [8]: 1.22 g/dL | Amount of the Product (nucleoside-5′-phosphate ester) [9]: 10.65 g/dL | Amount Produced (nucleoside-5′-ester) [10]: 0.98 g/dL

CC(=O)OP(=O)([O-])[O-].[K+].[Li+] [potassium lithium acetylphosphate]
Amount of 5′-inosinic acid formed [4]: 10.65 g/dL

O=C(O)CI [iodoacetic acid]
Effect of the addition of metal ion and inhibitor on activity [1]: inhibited | Effect of the addition of metal ion and inhibitor on activity [2]: inhibited

[Hg+2] [Hg^2+]
Effect of the addition of metal ion and inhibitor on activity [1]: inhibited | Effect of the addition of metal ion and inhibitor on activity [2]: inhibited

O=P(O)(O)OP(=O)(O)OP(=O)(O)O [Sodium tripolyphosphate, sodium tripolyphosphate]
Produced 5′-inosinic acid [3]: 2.10 g/dL | Amount of 5′-inosinic acid formed [4]: 10.84 g/dL | Produced 5′-inosinic acid [5]: 5.96 g/dL | Produced 5′-inosinic acid [6]: 1.20 g/dL

[Fe+2] [Fe^2+]
Effect of the addition of metal ion and inhibitor on activity [2]: inhibited
